Reference: PMC12128972, “TYRA-300, an FGFR3-selective inhibitor, promotes bone growth in two FGFR3-driven models of chondrodysplasia” (JCI Insight, 2025)
“And” between values parts separate entries of the source, which are not always exact repeats. Equal entries are not always repeated.

Columns and labels:
[1] = system: Fgfr3^Y367C/+ mouse model, which mimics the phenotype of ACH; experiment: Fgfr3Y367C/+ mice: growth, body weight and long bone length (calipers, x-ray); type: in vivo; set-up: nasoanal length, individual mice / tail length, individual mice: unit not given here; settings: for nasoanal length, individual mice / tail length, individual mice / body weight, individual mice: 1.2 mg/kg/d s.c. from day 1
Description: In this study, Fgfr3^Y367C/+ mice were administered TYRA-300 daily by subcutaneous injection at a dose of 1.2 mg/kg for 15 days beginning at 1 day of age to evaluate the effects on growth, bone length, and key skeletal parameters, compared with those of vehicle-treated Fgfr3^Y367C/+ mice. Results were also compared with those from vehicle-treated Fgfr3^+/+ (wild-type) mice. […] In Fgfr3^Y367C/+ mice, the […], resulting in disproportionate long bones.
Tg-CMV^Cre/+/Fgfr3^Y367C/+ mice were tattooed and assigned to treatment groups within each litter at 1 day of age (wild-type mice, Fgfr3^Y367/+ mice treated with vehicle, or Fgfr3^Y367/+ mice treated with 1.2 mg/kg TYRA-300). TYRA-300 was dissolved in aqueous HCl (3.5 mM) containing 5% dimethyl sulfoxide (DMSO) and administered subcutaneously to Fgfr3^Y367/+ mice (n = 8) for 15 days. The vehicle was administered to wild-type (n = 10) or Fgfr3^Y367/+ mice (n = 10) for 15 days. Subcutaneous administration was used for this study rather than oral gavage due to the reduced size of the mice. Clinical observations, nasoanal length and tail length measurements were performed every 3 days, and body weights were collected daily.
Whole body x-ray images were taken of all animals by Faxitron specimen radiography MX-20 (Faxitron X-Ray LLC) following terminal sacrifice. The length of the L4–L6 lumbar vertebra segment was also measured for each animal using calipers, and the height of the L5 vertebral body was measured from Alcian blue/Sirius red images. Long bones and the skull were then excised, and their dimensions were measured using calipers (VWRi819-0013, VWR International). The transverse and sagittal diameters of the foramen magnum were also measured using calipers for the Fgfr3^Y367/+ model, and measured using the μCT images for the Fgfr3^N534K/+ model.

wild-type C57BL/6J mice = experiment: Wild-type mouse growth velocity study; type: in vivo; set-up: nasoanal length, individual mice: unit not given here; settings: for femur length by calipers, individual mice / tibia length by calipers, individual mice: final day of treatment (8 weeks of age), in mm (unit assumed); for femurs longer than vehicle / tibias longer than vehicle: 4 weeks of treatment
Description: To determine the in vivo effect of FGFR3 inhibition under normal physiologic conditions, TYRA-300 was tested in a growth velocity assay in wild-type mice ([32]). In this study, wild-type C57BL/6J mice were dosed orally with TYRA-300 once daily from 4 to 8 weeks of age. […] Based on the doses evaluated for infigratinib in oncology and ACH, a lower dose was thought to be more appropriate for long-term treatment of pediatric growth–related conditions. We therefore initially explored doses in the 8 to 14 mg/kg range in this model. […] Specifically, after treatment with 12 mg/kg TYRA-300, the tibias were on average 3.9% longer than the tibias of mice that received treatment with vehicle, and the femurs were on average 5.0% longer after treatment; additionally, with 14 mg/kg TYRA-300, the tibias were 6.4% longer and the femurs were 8.2% longer. There was no difference in body weight among the treatment groups (data not shown).
At 21 days of age, female C57BL/6J mice (The Jackson Laboratory) were subject to nasoanal length and nasotail length measurement while under anesthesia. Tail length was calculated by subtracting nasoanal length from nasotail length. Body weights were also recorded. One week later, at 28 days of age, nasoanal lengths and body weights were measured again and mice were randomized to treatment groups of 12 mice per group according to nasoanal length. TYRA-300 was dissolved in 30% hydroxypropyl-β-cyclodextrin for administration by oral gavage. Mice were dosed orally with TYRA-300 or vehicle control once daily (QD) for 4 weeks, and nasoanal lengths and body weights were monitored once weekly, along with daily clinical observations. Mouse tibias and femurs were collected and measured with calipers at the end of the study.

[2] = 1.2 mg/kg s.c. daily for 15 days
[3] = 1.2 mg/kg s.c. daily for 15 days from 1 day of age
[4] = Fgfr3Y367C/+ mice + TYRA-300, individual animal values, in mm (unit assumed)
[5] = 12 mg/kg oral daily from week 4, week 3 of age (before treatment)
[6] = 12 mg/kg oral daily from week 4, week 4 of age (start of treatment)
[7] = 12 mg/kg oral daily from week 4, week 5 of age
[8] = 12 mg/kg oral daily from week 4, week 6 of age
[9] = 12 mg/kg oral daily from week 4, week 7 of age
[10] = 12 mg/kg oral daily from week 4, week 8 of age
[11] = 14 mg/kg oral daily from week 4, week 3 of age (before treatment)
[12] = 14 mg/kg oral daily from week 4, week 4 of age (start of treatment)

C[C@@H](Oc1ccc2[nH]nc(-c3ccc(N4CC5(C4)CN(S(C)(=O)=O)C5)nc3)c2c1)c1c(Cl)cncc1Cl [TYRA-300]
increase in length of the femur vs vehicle [1, 2]: 22.55% | increase in length of the humerus vs vehicle [1, 2]: 15.52% | increase in length of the tibia vs vehicle [1, 2]: 33.01% | increase in length of the ulna vs vehicle [1, 2]: 23.51% | increase in nasoanal length vs vehicle-treated mutant mice [1, 3]: 17.88% | increase in tail length vs vehicle-treated mutant mice [1, 3]: 25.10% | increase in body weight vs vehicle-treated mice ([1]; 1.2 mg/kg s.c. daily, end of treatment): 52.9% | nasoanal length, individual mice ([1]; day 1): 29 (4×) and 30 and 28 and 31 (2×) | tail length, individual mice ([1]; day 1): 12 and 13 (6×) and 14 | body weight, individual mice ([1]; day 1, in g (unit assumed)): 1.56 and 1.58 and 1.46 and 1.33 and 1.47 and 1.4 and 1.37 and 1.6 | body weight, individual mice ([1]; day 2, in g (unit assumed)): 1.72 and 1.94 and 1.84 and 1.42 and 1.55 and 1.46 and 1.53 and 2.01 | body weight, individual mice ([1]; day 3, in g (unit assumed)): 1.9 and 2.33 and 2.12 and 1.64 and 1.76 and 1.63 and 1.84 and 2.4 | nasoanal length, individual mice ([1]; day 4): 32 and 34 (2×) and 35 and 31 and 33 (3×) | tail length, individual mice ([1]; day 4): 17 (3×) and 18 and 19 and 16 (2×) and 15 | body weight, individual mice ([1]; day 4, in g (unit assumed)): 2.07 and 2.76 and 2.5 and 1.89 and 2.29 and 1.86 and 2.18 and 2.91 | body weight, individual mice ([1]; day 5): 2.2 (2×) and 3.12 and 2.97 and 2.23 and 2.52 and 2.53 and 3.27 | body weight, individual mice ([1]; day 6, in g (unit assumed)): 2.34 and 3.32 and 3.31 and 2.62 and 2.85 and 2.61 and 2.97 and 3.58 | nasoanal length, individual mice ([1]; day 7): 35 and 40 and 39 and 34 and 36 (4×) | tail length, individual mice ([1]; day 7): 25 and 23 (3×) and 21 (2×) and 24 and 22 | body weight, individual mice ([1]; day 7, in g (unit assumed)): 2.5 and 3.76 and 3.67 and 3.01 and 3.07 and 3 and 3.31 and 4 | body weight, individual mice ([1]; day 8, in g (unit assumed)): 2.88 and 4.38 and 4.13 and 3.59 and 3.58 and 3.33 and 3.74 and 4.2 | body weight, individual mice ([1]; day 9): 3.25 and 4.59 (2×) and 4.2 and 3.92 and 3.86 and 3.97 and 4.66 | nasoanal length, individual mice ([1]; day 10): 40 (3×) and 42 (3×) and 38 and 41 | tail length, individual mice ([1]; day 10): 25 and 28 and 27 (3×) and 26 (2×) and 29 | body weight, individual mice ([1]; day 10, in g (unit assumed)): 3.5 and 5.05 and 4.73 and 4.46 and 4.52 and 4.17 and 4.41 and 4.98 | body weight, individual mice ([1]; day 11, in g (unit assumed)): 3.7 and 5.46 and 5.06 and 4.65 and 4.64 and 4.44 and 4.99 and 5.57 | body weight, individual mice ([1]; day 12, in g (unit assumed)): 4.17 and 6.04 and 5.26 and 5.13 and 4.96 and 4.59 and 5.3 and 5.5 | nasoanal length, individual mice ([1]; day 13): 41 and 46 (2×) and 44 (2×) and 43 and 42 and 45 | tail length, individual mice ([1]; day 13): 31 (4×) and 35 (3×) and 32 | body weight, individual mice ([1]; day 13, in g (unit assumed)): 4.57 and 6.33 and 5.41 and 5.39 | nasoanal length, individual mice ([1]; day 16): 42 and 47 (2×) and 48 and 46 (2×) and 44 and 50 | tail length, individual mice ([1]; day 16): 33 (2×) and 36 (4×) and 34 and 35 | average normalization of long bone length toward wild-type ([1]; ACH model, 1.2 mg/kg): 26% | source data of Figure 2E (sheet "2E"): long bone length, bone not given [1, 4]: 7.38 and 6.94 and 7.67 and 7.62 and 7.75 and 7.48 and 7.35 and 7.46 | source data of Figure 2F (sheet "2F"): long bone length, bone not given [1, 4]: 6.52 and 6.4 and 6.85 and 6.87 and 5.9 and 6.57 and 6.71 | source data of Figure 2G (sheet "2G"): long bone length, bone not given [1, 4]: 6.5 and 6.23 and 7.03 and 6.67 and 6.08 and 7.07 and 6.74 and 6.82 | source data of Figure 2H (sheet "2H"): long bone length, bone not given [1, 4]: 5.78 and 5.71 and 6.17 and 5.84 and 6.2 and 5.91 and 5.85 and 6.02 | bone growth compared with low-dose infigratinib (0.5 mg/kg) ([1]; TYRA-300 1.2 mg/kg, 15 days starting at 1 day of age, comparator data ref 28, 29): more bone growth than low-dose infigratinib | nasoanal length and tibia and femur length vs vehicle (wild-type C57BL/6J mice; 8 mg/kg and 10 mg/kg, data not shown, P < 0.05): significant increases | tail length and tibia and femur length vs vehicle (wild-type C57BL/6J mice; 12 mg/kg and 14 mg/kg oral once daily, 4 weeks): increased significantly and dose-dependently | nasoanal length, individual mice (wild-type C57BL/6J mice; [5]): 6.5 and 7.5 (2×) and 7.3 and 7 (3×) and 6.8 (2×) and 6.2 and 7.2 and 6 | tail length, individual mice (wild-type C57BL/6J mice; [5]): 5.7 and 6.3 and 6 (2×) and 6.2 and 5.6 and 5.5 and 6.4 and 6.6 and 5.9 and 5.3 and 5.8 | nasoanal length, individual mice (wild-type C57BL/6J mice; [6]): 7.7 (3×) and 8.2 and 7.8 (3×) and 8 (2×) and 7.2 and 8.3 and 7.3 | tail length, individual mice (wild-type C57BL/6J mice; [6]): 5.9 and 7.2 (2×) and 6.9 (2×) and 6.7 and 6.8 and 6.3 and 6.4 (2×) and 5.7 and 6.5 | nasoanal length, individual mice (wild-type C57BL/6J mice; [7]): 8.2 and 8.6 (3×) and 8.5 (2×) and 8.7 and 8.3 (3×) and 9 and 7.7 | tail length, individual mice (wild-type C57BL/6J mice; [7]): 6.8 and 7.2 (3×) and 7.3 (2×) and 7.1 (2×) and 6.7 and 7.4 and 7.8 and 6.5 | nasoanal length, individual mice (wild-type C57BL/6J mice; [8]): 8.6 (2×) and 8.8 (2×) and 8.7 (3×) and 9.2 and 9.1 and 9 and 9.3 and 8.4 | tail length, individual mice (wild-type C57BL/6J mice; [8]): 7.3 and 7.8 (2×) and 7.9 and 7.7 (3×) and 7.6 (2×) and 8 and 8.2 and 7 | nasoanal length, individual mice (wild-type C57BL/6J mice; [9]): 8.8 and 9.1 (2×) and 9 (3×) and 9.4 and 9.3 and 9.5 and 10 and 9.2 and 8.7 | tail length, individual mice (wild-type C57BL/6J mice; [9]): 7.9 (2×) and 8 (3×) and 8.2 and 7.7 (2×) and 8.3 and 8.5 and 7.3 and 8.1 | nasoanal length, individual mice (wild-type C57BL/6J mice; [10]): 9.2 (3×) and 9.3 (5×) and 9.4 and 9.5 and 10 and 8.8 | tail length, individual mice (wild-type C57BL/6J mice; [10]): 7.8 and 8.2 and 7.9 and 8.1 (4×) and 8.3 and 8 and 8.5 and 8.6 and 7.5 | femur length by calipers, individual mice (wild-type C57BL/6J mice; 12 mg/kg oral daily): 13.78 and 13.37 and 14.79 and 13.97 and 13.86 and 12.93 and 14.23 and 13.91 and 13.8 and 13.51 and 13.98 | tibia length by calipers, individual mice (wild-type C57BL/6J mice; 12 mg/kg oral daily): 15.08 and 16.34 and 16.3 and 17.19 and 16.6 and 15.75 and 16.27 and 16.06 and 16.41 and 16.46 and 17 | femurs longer than vehicle (wild-type C57BL/6J mice; 12 mg/kg oral once daily): 5.0% | tibias longer than vehicle (wild-type C57BL/6J mice; 12 mg/kg oral once daily): 3.9% | nasoanal length, individual mice (wild-type C57BL/6J mice; [11]): 6.6 and 7.6 (2×) and 7.3 (2×) and 6.7 and 6.3 and 7.1 and 7.2 (2×) and 6.8 and 6.9 | tail length, individual mice (wild-type C57BL/6J mice; [11]): 5.5 (2×) and 6 (2×) and 6.4 (2×) and 6.1 and 5.3 and 5.7 and 5.6 (3×) | nasoanal length, individual mice (wild-type C57BL/6J mice; [12]): 7.7 (2×) and 8.2 (2×) and 7.8 (4×) and 8 (2×) and 7.3 and 7.2 | tail length, individual mice (wild-type C57BL/6J mice; [12]): 6.3 and 6.9 (2×) and 7 (2×) and 6.8 and 6 (2×) and 6.4 (2×) and 6.6 and 6.7 | nasoanal length, individual mice (wild-type C57BL/6J mice; 14 mg/kg oral daily from week 4, week 5 of age): 8.7 (2×) and 8.5 and 8.6 | tail length, individual mice (wild-type C57BL/6J mice; 14 mg/kg oral daily from week 4, week 5 of age, in cm (unit assumed)): 7 and 7.6 and 7.4 and 7.5 | femur length by calipers, individual mice (wild-type C57BL/6J mice; 14 mg/kg oral daily): 14.47 and 14.13 and 13.58 and 13.93 and 13.04 and 14.9 and 14.56 and 14.74 and 14.08 and 15.12 and 14.91 and 13.6 | tibia length by calipers, individual mice (wild-type C57BL/6J mice; 14 mg/kg oral daily): 16.57 and 16.39 and 16.89 and 16.61 and 16.95 and 17.24 and 16.1 and 17.47 and 16.69 and 16.27 | increase in nasoanal length vs vehicle (wild-type C57BL/6J mice; 14 mg/kg oral once daily, 4 to 8 weeks of age): 7.3% | femurs longer than vehicle (wild-type C57BL/6J mice; 14 mg/kg oral once daily): 8.2% | tibias longer than vehicle (wild-type C57BL/6J mice; 14 mg/kg oral once daily): 6.4% | body weight among the treatment groups (wild-type C57BL/6J mice; oral once daily, data not shown): no difference
